Measured values reported in the NIST ThermoML archive (doi:10.1021/je100208e).
± gives the expanded uncertainty stated by the source.

How the values were obtained:
[1] = for vapor or sublimation pressure: Knudsen effusion; for Normal melting temperature: DTA
[2] = Molar enthalpy of transition or fusion; conditions: Crystal; DSC

c1ccc2cc3ccccc3cc2c1 [anthracene]
[1], Crystal
Conditions | vapor or sublimation pressure [kPa]
300 K | 1.192e-06 ± 7e-08
305 K | 2.257e-06 ± 1.2e-07
310 K | 4.186e-06 ± 2.2e-07
315 K | 7.613e-06 ± 3.9e-07
320 K | 1.359e-05 ± 6.9e-07
325 K | 2.383e-05 ± 1.2e-06
330 K | 4.109e-05 ± 2.1e-06
335 K | 6.969e-05 ± 3.5e-06
340 K | 0.0001164 ± 5.8e-06
345 K | 0.0001915 ± 9.6e-06
350 K | 0.0003107 ± 1.6e-05
355 K | 0.0004972 ± 2.5e-05
360 K | 0.0007852 ± 3.9e-05
365 K | 0.001225 ± 6.1e-05
370 K | 0.001888 ± 9.4e-05
373 K | 0.002433 ± 0.00012

Conditions | Normal melting temperature [°C]
[1], Crystal | 217 ± 1

Conditions | Molar enthalpy of transition or fusion [kcal/mol]
[2] | 6.65 ± 0.454

c1cc2ccc3cccc4ccc(c1)c2c34 [pyrene]
[1], Crystal 1
Conditions | vapor or sublimation pressure [kPa]
315 K | 4.79e-06 ± 2.5e-07
320 K | 8.55e-06 ± 4.4e-07
325 K | 1.499e-05 ± 7.6e-07
330 K | 2.584e-05 ± 1.3e-06
335 K | 4.382e-05 ± 2.2e-06
340 K | 7.317e-05 ± 3.7e-06
345 K | 0.0001204 ± 6e-06
350 K | 0.0001952 ± 9.8e-06
355 K | 0.0003124 ± 1.6e-05
360 K | 0.0004933 ± 2.5e-05
365 K | 0.0007693 ± 3.9e-05
370 K | 0.001185 ± 5.9e-05
375 K | 0.001806 ± 9.1e-05
378 K | 0.002312 ± 0.00012

Conditions | Normal melting temperature [°C]
[1], Crystal | 151 ± 1

Conditions | Molar enthalpy of transition or fusion [kcal/mol]
[2] | 3.87 ± 0.263
